Laboratory results: ChEMBL document CHEMBL3885881, “DrugMatrix”

Species on record: Rattus norvegicus
Assay: DrugMatrix - Regimen: Daily Repeat
Type: toxicity, organism-based, Sprague-Dawley
Parameters: regimen Daily Repeat, gender Male, age 6-8 weeks
Conditions: in vivo, po, route oral GAVAGE, vehicle .5 % CMC; for ABSOLUTE BASOPHIL / ABSOLUTE EOSINOPHIL / ABSOLUTE LYMPHOCYTE / ABSOLUTE MONOCYTE / ABSOLUTE SEGMENTED NEUTROPHIL / BASOPHIL / EOSINOPHIL / ERYTHROCYTE COUNT / HEMATOCRIT / HEMOGLOBIN / LEUKOCYTE COUNT / LYMPHOCYTE / MEAN CORPUSCULAR HEMOGLOBIN / MEAN CORPUSCULAR HEMOGLOBIN CONCENTRATION / MEAN CORPUSCULAR VOLUME / MONOCYTE / NEUTROPHIL / NUCLEATED RED BLOOD CELLS / PLATELET COUNT: tissue Blood; for ALANINE AMINOTRANSFERASE / ALBUMIN / ALKALINE PHOSPHATASE / ASPARTATE AMINOTRANSFERASE / BLOOD UREA NITROGEN / CARBON DIOXIDE / CHLORIDE / CHOLESTEROL / CREATINE PHOSPHOKINASE / CREATININE / GLUCOSE / LACTATE DEHYDROGENASE / LIPASE / PHOSPHORUS / POTASSIUM / SODIUM / TOTAL BILIRUBIN / TOTAL PROTEIN / URIC ACID: tissue Plasma
[1] = 0 mg/kg, 72 h, dose level Control, time 3 day
[2] = 0 mg/kg, 120 h, dose level Control, time 5 day
[3] = 88 mg/kg, 72 h, dose level Low, time 3 day

CC(C)[C@H](N)C(=O)OCCOCn1cnc2c(=O)[nH]c(N)nc21 [VALACYCLOVIR]
ABSOLUTE BASOPHIL [1]: 0 CELLS/uL | ABSOLUTE EOSINOPHIL [1]: 171.33 CELLS/uL | ABSOLUTE LYMPHOCYTE [1]: 13776.5 CELLS/uL | ABSOLUTE MONOCYTE [1]: 180.83 CELLS/uL | ABSOLUTE SEGMENTED NEUTROPHIL [1]: 1121.33 CELLS/uL | BASOPHIL [1]: 0% | EOSINOPHIL [1]: 1% | ERYTHROCYTE COUNT [1]: 5.56 x10E6/uL | HEMATOCRIT [1]: 34.75% | HEMOGLOBIN [1]: 13.68 G/DL | LEUKOCYTE COUNT [1]: 15.25 x10E3/uL | LYMPHOCYTE [1]: 90.17% | MEAN CORPUSCULAR HEMOGLOBIN [1]: 24.6 pg | MEAN CORPUSCULAR HEMOGLOBIN CONCENTRATION [1]: 39.4 G/DL | MEAN CORPUSCULAR VOLUME [1]: 62.48 fL | MONOCYTE [1]: 1.17% | NEUTROPHIL [1]: 7.67% | NUCLEATED RED BLOOD CELLS [1]: 0 /100WBC | PLATELET COUNT [1]: 1342 x10E3/uL | ALANINE AMINOTRANSFERASE [1]: 49.67 u/L | ALBUMIN [1]: 4.15 G/DL | ALKALINE PHOSPHATASE [1]: 346.83 u/L | ASPARTATE AMINOTRANSFERASE [1]: 108.17 u/L | BLOOD UREA NITROGEN [1]: 17.33 mg/dL | CARBON DIOXIDE [1]: 25 mmol/L | CHLORIDE [1]: 100.83 MEQ/L | CHOLESTEROL [1]: 66.83 mg/dL | CREATINE PHOSPHOKINASE [1]: 788 u/L | CREATININE [1]: 0.18 mg/dL | GLUCOSE [1]: 151.67 mg/dL | LACTATE DEHYDROGENASE [1]: 982.5 u/L | LIPASE [1]: 10.33 u/L | PHOSPHORUS [1]: 11.23 mg/dL | POTASSIUM [1]: 6.37 MEQ/L | SODIUM [1]: 141.02 MEQ/L | TOTAL BILIRUBIN [1]: 0.18 mg/dL | TOTAL PROTEIN [1]: 5.9 G/DL | URIC ACID [1]: 1.8 mg/dL | ABSOLUTE BASOPHIL [2]: 0 CELLS/uL | ABSOLUTE EOSINOPHIL [2]: 69 CELLS/uL | ABSOLUTE LYMPHOCYTE [2]: 13632.83 CELLS/uL | ABSOLUTE MONOCYTE [2]: 139.83 CELLS/uL | ABSOLUTE SEGMENTED NEUTROPHIL [2]: 1225 CELLS/uL | BASOPHIL [2]: 0% | EOSINOPHIL [2]: 0.33% | ERYTHROCYTE COUNT [2]: 5.52 x10E6/uL | HEMATOCRIT [2]: 33.98% | HEMOGLOBIN [2]: 13.22 G/DL | LEUKOCYTE COUNT [2]: 15.07 x10E3/uL | LYMPHOCYTE [2]: 90.83% | MEAN CORPUSCULAR HEMOGLOBIN [2]: 23.95 pg | MEAN CORPUSCULAR HEMOGLOBIN CONCENTRATION [2]: 38.9 G/DL | MEAN CORPUSCULAR VOLUME [2]: 61.53 fL | MONOCYTE [2]: 0.83% | NEUTROPHIL [2]: 8% | NUCLEATED RED BLOOD CELLS [2]: 0 /100WBC | PLATELET COUNT [2]: 1196 x10E3/uL | ALANINE AMINOTRANSFERASE [2]: 49.17 u/L | ALBUMIN [2]: 4.2 G/DL | ALKALINE PHOSPHATASE [2]: 352.33 u/L | ASPARTATE AMINOTRANSFERASE [2]: 89.67 u/L | BLOOD UREA NITROGEN [2]: 18 mg/dL | CARBON DIOXIDE [2]: 27.67 mmol/L | CHLORIDE [2]: 101 MEQ/L | CHOLESTEROL [2]: 72.83 mg/dL | CREATINE PHOSPHOKINASE [2]: 417.5 u/L | CREATININE [2]: 0.18 mg/dL | GLUCOSE [2]: 150.5 mg/dL | LACTATE DEHYDROGENASE [2]: 517.33 u/L | LIPASE [2]: 9 u/L | PHOSPHORUS [2]: 11.87 mg/dL | POTASSIUM [2]: 6.57 MEQ/L | SODIUM [2]: 143.62 MEQ/L | TOTAL BILIRUBIN [2]: 0.2 mg/dL | TOTAL PROTEIN [2]: 6.08 G/DL | URIC ACID [2]: 1.45 mg/dL | ABSOLUTE BASOPHIL [3]: 0 CELLS/uL | ABSOLUTE EOSINOPHIL [3]: 194 CELLS/uL | ABSOLUTE LYMPHOCYTE [3]: 11636 CELLS/uL | ABSOLUTE MONOCYTE [3]: 141 CELLS/uL | ABSOLUTE SEGMENTED NEUTROPHIL [3]: 1129 CELLS/uL | BASOPHIL [3]: 0% | EOSINOPHIL [3]: 1.33% | ERYTHROCYTE COUNT [3]: 5.5 x10E6/uL | HEMATOCRIT [3]: 34.9% | HEMOGLOBIN [3]: 13.63 G/DL | LEUKOCYTE COUNT [3]: 13.1 x10E3/uL | LYMPHOCYTE [3]: 89.33% | MEAN CORPUSCULAR HEMOGLOBIN [3]: 24.77 pg | MEAN CORPUSCULAR HEMOGLOBIN CONCENTRATION [3]: 39.07 G/DL | MEAN CORPUSCULAR VOLUME [3]: 63.5 fL | MONOCYTE [3]: 1% | NEUTROPHIL [3]: 8.33% | NUCLEATED RED BLOOD CELLS [3]: 0 /100WBC | PLATELET COUNT [3]: 1139.67 x10E3/uL
